Reference: ChEMBL document CHEMBL4507285, “Data for DCP probe MRL-SYKi” (2021)

Assays:
[1] = molecular target: Uncharacterized serine/threonine-protein kinase SBK3 (Homo sapiens) (UniProt P0C264); conditions: Compound concentration 100.0 nM
[2] = molecular target: Serine/threonine-protein kinase PAK 6 (Homo sapiens) (UniProt Q9NQU5); conditions: Compound concentration 100.0 nM
[3] = molecular target: Receptor tyrosine-protein kinase erbB-3 (Homo sapiens) (UniProt P21860); conditions: Compound concentration 100.0 nM
[4] = test system: Tyrosine-protein kinase ABL1 (Homo sapiens), P00519 [F317I]; conditions: Compound concentration 100.0 nM
[5] = molecular target: Fibroblast growth factor receptor 3 (Homo sapiens) (UniProt P22607); conditions: Compound concentration 100.0 nM
[6] = molecular target: BMP-2-inducible protein kinase (Homo sapiens) (UniProt Q9NSY1); conditions: Compound concentration 100.0 nM
[7] = molecular target: Ephrin type-B receptor 6 (Homo sapiens) (UniProt O15197); conditions: Compound concentration 100.0 nM
Ephrin type-B receptor 6 (Homo sapiens), sequence (O15197 whole entry): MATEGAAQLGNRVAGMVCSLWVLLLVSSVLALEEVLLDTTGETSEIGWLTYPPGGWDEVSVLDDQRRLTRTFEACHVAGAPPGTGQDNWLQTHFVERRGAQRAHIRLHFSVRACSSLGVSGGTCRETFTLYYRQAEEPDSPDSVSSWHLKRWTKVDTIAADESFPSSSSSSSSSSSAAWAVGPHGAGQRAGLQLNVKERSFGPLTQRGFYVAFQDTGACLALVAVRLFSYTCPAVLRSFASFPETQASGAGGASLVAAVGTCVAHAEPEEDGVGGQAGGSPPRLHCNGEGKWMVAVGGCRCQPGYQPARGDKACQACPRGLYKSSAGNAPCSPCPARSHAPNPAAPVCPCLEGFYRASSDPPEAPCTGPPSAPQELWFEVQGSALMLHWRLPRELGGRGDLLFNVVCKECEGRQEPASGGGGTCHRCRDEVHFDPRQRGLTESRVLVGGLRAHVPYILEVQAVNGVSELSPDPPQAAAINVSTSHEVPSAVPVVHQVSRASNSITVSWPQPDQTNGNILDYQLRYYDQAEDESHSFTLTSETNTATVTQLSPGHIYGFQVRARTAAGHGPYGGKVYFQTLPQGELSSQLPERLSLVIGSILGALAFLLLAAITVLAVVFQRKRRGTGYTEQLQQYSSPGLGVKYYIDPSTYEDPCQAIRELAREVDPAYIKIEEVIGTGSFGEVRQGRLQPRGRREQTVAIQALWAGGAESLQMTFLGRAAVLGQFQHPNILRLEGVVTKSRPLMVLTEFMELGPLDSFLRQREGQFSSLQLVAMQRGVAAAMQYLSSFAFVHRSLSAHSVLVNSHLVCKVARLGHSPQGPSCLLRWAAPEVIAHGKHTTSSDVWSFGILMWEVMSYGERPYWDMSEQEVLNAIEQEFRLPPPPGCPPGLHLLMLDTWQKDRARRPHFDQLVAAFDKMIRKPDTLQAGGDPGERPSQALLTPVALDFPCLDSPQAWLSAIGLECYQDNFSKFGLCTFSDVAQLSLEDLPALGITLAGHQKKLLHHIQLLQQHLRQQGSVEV

[8] = molecular target: Cyclin-dependent kinase-like 5 (Homo sapiens) (UniProt O76039); conditions: Compound concentration 100.0 nM
[9] = test system: Mast/stem cell growth factor receptor Kit (Homo sapiens), P10721 [A829P]; conditions: Compound concentration 100.0 nM
[10] = molecular target: Dual specificity tyrosine-phosphorylation-regulated kinase 1B (Homo sapiens) (UniProt Q9Y463); conditions: Compound concentration 100.0 nM
Dual specificity tyrosine-phosphorylation-regulated kinase 1B (Homo sapiens), sequence (Q9Y463 whole entry, looked up): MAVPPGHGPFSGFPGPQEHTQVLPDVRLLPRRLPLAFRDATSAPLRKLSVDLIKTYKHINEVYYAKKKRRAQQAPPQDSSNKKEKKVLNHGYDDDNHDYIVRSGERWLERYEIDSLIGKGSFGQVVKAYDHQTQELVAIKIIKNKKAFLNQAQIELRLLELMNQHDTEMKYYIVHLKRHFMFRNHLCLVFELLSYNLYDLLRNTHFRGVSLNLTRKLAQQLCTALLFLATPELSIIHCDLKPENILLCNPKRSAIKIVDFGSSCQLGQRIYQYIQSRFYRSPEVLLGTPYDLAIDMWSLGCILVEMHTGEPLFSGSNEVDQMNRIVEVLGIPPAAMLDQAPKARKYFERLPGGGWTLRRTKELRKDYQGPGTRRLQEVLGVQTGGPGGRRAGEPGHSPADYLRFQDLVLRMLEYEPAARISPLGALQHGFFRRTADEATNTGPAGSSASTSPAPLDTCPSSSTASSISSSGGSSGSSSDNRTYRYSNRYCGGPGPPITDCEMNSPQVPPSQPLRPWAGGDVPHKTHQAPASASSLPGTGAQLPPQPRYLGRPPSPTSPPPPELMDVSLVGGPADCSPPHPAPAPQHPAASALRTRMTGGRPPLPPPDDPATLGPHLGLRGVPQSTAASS

[11] = molecular target: Mitogen-activated protein kinase kinase kinase 5 (Homo sapiens) (UniProt Q99683); conditions: Compound concentration 100.0 nM
[12] = molecular target: Serine/threonine-protein kinase TBK1 (Homo sapiens) (UniProt Q9UHD2); conditions: Compound concentration 100.0 nM
[13] = molecular target: Casein kinase II subunit alpha' (Homo sapiens) (UniProt P19784); conditions: Compound concentration 100.0 nM
Casein kinase II subunit alpha' (Homo sapiens), sequence (P19784 whole entry, looked up): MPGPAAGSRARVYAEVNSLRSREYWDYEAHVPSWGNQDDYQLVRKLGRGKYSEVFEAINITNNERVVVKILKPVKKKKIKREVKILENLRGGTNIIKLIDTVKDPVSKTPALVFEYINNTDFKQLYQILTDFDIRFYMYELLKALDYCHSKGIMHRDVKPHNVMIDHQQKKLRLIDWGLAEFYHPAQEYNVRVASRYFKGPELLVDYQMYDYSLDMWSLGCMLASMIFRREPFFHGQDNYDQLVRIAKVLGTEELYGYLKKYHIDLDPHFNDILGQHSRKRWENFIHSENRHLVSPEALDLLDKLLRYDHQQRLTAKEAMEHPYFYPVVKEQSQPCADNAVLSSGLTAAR

[14] = molecular target: Sodium-dependent serotonin transporter (Homo sapiens) (UniProt P31645); conditions: Compound concentration 10.0 uM
Sodium-dependent serotonin transporter (Homo sapiens), sequence (P31645 whole entry, looked up): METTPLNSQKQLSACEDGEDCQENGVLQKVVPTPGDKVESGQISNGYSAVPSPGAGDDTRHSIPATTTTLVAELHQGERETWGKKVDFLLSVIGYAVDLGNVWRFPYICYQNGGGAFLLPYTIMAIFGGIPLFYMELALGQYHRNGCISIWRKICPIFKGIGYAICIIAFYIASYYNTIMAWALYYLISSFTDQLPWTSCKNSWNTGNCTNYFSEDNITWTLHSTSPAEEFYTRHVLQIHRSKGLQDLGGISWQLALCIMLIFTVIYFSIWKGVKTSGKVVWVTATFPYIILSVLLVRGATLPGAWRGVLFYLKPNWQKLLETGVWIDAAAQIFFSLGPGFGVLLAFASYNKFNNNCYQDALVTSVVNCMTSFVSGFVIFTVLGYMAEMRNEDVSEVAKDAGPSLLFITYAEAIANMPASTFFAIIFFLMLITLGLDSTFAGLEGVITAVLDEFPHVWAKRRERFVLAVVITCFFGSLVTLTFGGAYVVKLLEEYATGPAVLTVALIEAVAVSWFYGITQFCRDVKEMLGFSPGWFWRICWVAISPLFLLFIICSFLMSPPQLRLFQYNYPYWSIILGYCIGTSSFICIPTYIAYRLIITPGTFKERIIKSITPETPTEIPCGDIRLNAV

[15] = test system: Proto-oncogene tyrosine-protein kinase receptor Ret (Homo sapiens), P07949 [V804M]; conditions: Compound concentration 100.0 nM
Proto-oncogene tyrosine-protein kinase receptor Ret (Homo sapiens), P07949 [V804M], sequence (P07949 whole entry V804M): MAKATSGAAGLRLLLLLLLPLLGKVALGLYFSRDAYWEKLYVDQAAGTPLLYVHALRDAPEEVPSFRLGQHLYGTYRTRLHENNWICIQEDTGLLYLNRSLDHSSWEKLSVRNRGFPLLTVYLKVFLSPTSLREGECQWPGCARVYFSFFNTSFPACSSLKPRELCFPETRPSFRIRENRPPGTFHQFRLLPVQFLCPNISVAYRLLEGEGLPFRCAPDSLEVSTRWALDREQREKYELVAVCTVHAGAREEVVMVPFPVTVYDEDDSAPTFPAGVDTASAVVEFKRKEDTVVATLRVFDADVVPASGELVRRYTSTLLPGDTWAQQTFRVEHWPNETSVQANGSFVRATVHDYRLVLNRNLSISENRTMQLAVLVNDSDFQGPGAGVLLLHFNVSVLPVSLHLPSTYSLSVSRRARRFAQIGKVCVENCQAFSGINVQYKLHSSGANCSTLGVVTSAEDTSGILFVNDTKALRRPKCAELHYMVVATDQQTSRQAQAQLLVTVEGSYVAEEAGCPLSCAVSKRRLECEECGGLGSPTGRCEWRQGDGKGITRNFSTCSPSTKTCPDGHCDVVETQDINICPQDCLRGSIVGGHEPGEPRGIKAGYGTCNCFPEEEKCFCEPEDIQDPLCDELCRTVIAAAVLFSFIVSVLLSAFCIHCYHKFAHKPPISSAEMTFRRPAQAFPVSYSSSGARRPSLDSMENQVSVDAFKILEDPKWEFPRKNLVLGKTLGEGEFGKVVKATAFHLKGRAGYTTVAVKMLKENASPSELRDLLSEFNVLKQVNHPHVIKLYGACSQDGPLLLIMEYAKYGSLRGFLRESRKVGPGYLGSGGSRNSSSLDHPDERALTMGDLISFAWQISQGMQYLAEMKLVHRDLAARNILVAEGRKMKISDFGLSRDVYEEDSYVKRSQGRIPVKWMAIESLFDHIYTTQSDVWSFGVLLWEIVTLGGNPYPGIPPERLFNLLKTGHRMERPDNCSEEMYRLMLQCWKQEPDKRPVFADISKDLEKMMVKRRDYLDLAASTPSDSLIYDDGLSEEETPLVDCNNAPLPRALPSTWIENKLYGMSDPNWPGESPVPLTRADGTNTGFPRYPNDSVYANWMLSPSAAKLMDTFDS

[16] = molecular target: Proto-oncogene tyrosine-protein kinase receptor Ret (Homo sapiens) (UniProt P07949); conditions: Compound concentration 100.0 nM
[17] = molecular target: Tyrosine-protein kinase Lck (Homo sapiens) (UniProt P06239); conditions: Compound concentration 100.0 nM
[18] = molecular target: Mitogen-activated protein kinase 14 (Homo sapiens) (UniProt Q16539); conditions: Compound concentration 100.0 nM
[19] = molecular target: Dual specificity protein kinase CLK2 (Homo sapiens) (UniProt P49760); conditions: Compound concentration 100.0 nM
[20] = molecular target: Cyclin-dependent kinase-like 2 (Homo sapiens) (UniProt Q92772); conditions: Compound concentration 100.0 nM
[21] = molecular target: Serine/threonine-protein kinase PknB (Mycobacterium tuberculosis) (UniProt P9WI81); conditions: Compound concentration 100.0 nM
[22] = molecular target: Sodium-dependent dopamine transporter (Homo sapiens) (UniProt Q01959); conditions: Compound concentration 10.0 uM
[23] = molecular target: Beta-3 adrenergic receptor (Homo sapiens) (UniProt P13945); conditions: Compound concentration 10.0 uM
[24] = molecular target: Ephrin type-A receptor 8 (Homo sapiens) (UniProt P29322); conditions: Compound concentration 100.0 nM
[25] = molecular target: Vascular endothelial growth factor receptor 3 (Homo sapiens) (UniProt P35916); conditions: Compound concentration 100.0 nM
[26] = molecular target: Calcium/calmodulin-dependent protein kinase kinase 1 (Homo sapiens) (UniProt Q8N5S9); conditions: Compound concentration 100.0 nM
[27] = molecular target: Dual specificity protein kinase CLK1 (Homo sapiens) (UniProt P49759); conditions: Compound concentration 100.0 nM
[28] = test system: Epidermal growth factor receptor (Homo sapiens), P00533 [UNDEFINED MUTATION]; conditions: Compound concentration 100.0 nM
[29] = molecular target: Receptor-interacting serine/threonine-protein kinase 4 (Homo sapiens) (UniProt P57078); conditions: Compound concentration 100.0 nM
[30] = molecular target: Sigma intracellular receptor 2 (Homo sapiens) (UniProt Q5BJF2); conditions: Compound concentration 10.0 uM
[31] = molecular target: Tyrosine-protein kinase JAK1 (Homo sapiens) (UniProt P23458); conditions: Compound concentration 100.0 nM
[32] = molecular target: Non-receptor tyrosine-protein kinase TYK2 (Homo sapiens) (UniProt P29597); conditions: Compound concentration 100.0 nM
[33] = test system: Epidermal growth factor receptor (Homo sapiens), P00533 [T790M]; conditions: Compound concentration 100.0 nM
[34] = molecular target: Ribosomal protein S6 kinase alpha-5 (Homo sapiens) (UniProt O75582); conditions: Compound concentration 100.0 nM
[35] = molecular target: Tyrosine-protein kinase Lyn (Homo sapiens) (UniProt P07948); conditions: Compound concentration 100.0 nM
[36] = molecular target: Beta-2 adrenergic receptor (Homo sapiens) (UniProt P07550); conditions: Compound concentration 10.0 uM
[37] = molecular target: Serine/threonine-protein kinase ULK3 (Homo sapiens) (UniProt Q6PHR2); conditions: Compound concentration 100.0 nM
Serine/threonine-protein kinase ULK3 (Homo sapiens), sequence (Q6PHR2 whole entry): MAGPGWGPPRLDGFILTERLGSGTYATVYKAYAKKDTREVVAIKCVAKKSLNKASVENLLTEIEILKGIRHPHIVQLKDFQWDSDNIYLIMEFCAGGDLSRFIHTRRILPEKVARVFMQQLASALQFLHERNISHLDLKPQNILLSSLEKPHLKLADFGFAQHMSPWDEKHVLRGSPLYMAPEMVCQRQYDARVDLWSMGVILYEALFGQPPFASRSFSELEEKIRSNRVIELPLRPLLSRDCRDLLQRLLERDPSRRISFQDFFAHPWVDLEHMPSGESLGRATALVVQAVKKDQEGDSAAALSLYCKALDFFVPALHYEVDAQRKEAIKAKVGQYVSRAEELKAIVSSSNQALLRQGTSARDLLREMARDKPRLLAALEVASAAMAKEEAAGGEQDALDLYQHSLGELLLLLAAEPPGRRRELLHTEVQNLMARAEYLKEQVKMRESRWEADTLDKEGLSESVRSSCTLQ

[38] = molecular target: Ribosomal protein S6 kinase alpha-2 (Homo sapiens) (UniProt Q15349); conditions: Compound concentration 100.0 nM
[39] = molecular target: Mitogen-activated protein kinase kinase kinase kinase 2 (Homo sapiens) (UniProt Q12851); conditions: Compound concentration 100.0 nM
[40] = molecular target: Cyclin-dependent kinase 2 (Homo sapiens) (UniProt P24941); conditions: Compound concentration 100.0 nM
[41] = molecular target: Serine/threonine-protein kinase PAK 5 (Homo sapiens) (UniProt Q9P286); conditions: Compound concentration 100.0 nM
[42] = molecular target: Phosphorylase b kinase gamma catalytic chain, skeletal muscle/heart isoform (Homo sapiens) (UniProt Q16816); conditions: Compound concentration 100.0 nM
[43] = test system: Phosphatidylinositol 4,5-bisphosphate 3-kinase catalytic subunit alpha isoform (Homo sapiens), P42336 [Q546K]; conditions: Compound concentration 100.0 nM
[44] = molecular target: Insulin-like growth factor 1 receptor (Homo sapiens) (UniProt P08069); conditions: Compound concentration 100.0 nM
[45] = molecular target: D(1A) dopamine receptor (Homo sapiens) (UniProt P21728); conditions: Compound concentration 10.0 uM
D(1A) dopamine receptor (Homo sapiens), sequence (P21728 whole entry): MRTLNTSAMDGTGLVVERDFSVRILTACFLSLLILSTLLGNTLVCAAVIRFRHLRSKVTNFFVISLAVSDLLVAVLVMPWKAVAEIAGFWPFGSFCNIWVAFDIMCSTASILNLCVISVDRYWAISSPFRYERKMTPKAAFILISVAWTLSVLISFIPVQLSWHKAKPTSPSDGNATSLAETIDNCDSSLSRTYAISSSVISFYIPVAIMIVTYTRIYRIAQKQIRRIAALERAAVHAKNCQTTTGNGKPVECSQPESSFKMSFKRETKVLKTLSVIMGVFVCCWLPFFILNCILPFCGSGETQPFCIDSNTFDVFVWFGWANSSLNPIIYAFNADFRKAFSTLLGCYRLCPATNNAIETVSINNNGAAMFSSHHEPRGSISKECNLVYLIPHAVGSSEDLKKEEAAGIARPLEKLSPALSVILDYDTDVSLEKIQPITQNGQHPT

Uncharacterized serine/threonine-protein kinase SBK3 (Homo sapiens), sequence (P0C264 whole entry): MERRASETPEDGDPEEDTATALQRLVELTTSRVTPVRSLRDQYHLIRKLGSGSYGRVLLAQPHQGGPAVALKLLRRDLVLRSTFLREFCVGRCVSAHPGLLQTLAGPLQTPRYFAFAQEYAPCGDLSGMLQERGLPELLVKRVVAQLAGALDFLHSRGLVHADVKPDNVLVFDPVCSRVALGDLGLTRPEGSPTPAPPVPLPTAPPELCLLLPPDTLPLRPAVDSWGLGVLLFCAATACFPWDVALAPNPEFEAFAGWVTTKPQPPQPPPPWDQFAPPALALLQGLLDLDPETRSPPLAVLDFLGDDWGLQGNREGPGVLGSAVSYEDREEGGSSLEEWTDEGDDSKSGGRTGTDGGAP

With Cc1ccc(-c2cnc([C@@]3(O)CC[C@H](C(=O)O)C(C)(C)C3)s2)cc1Nc1cccc(C(F)(F)F)n1 [MRL-SYKi-NC] the residual activity [1] was 100%, the residual activity [2] was 70.5% and the residual activity [3] was 100%. The residual activity [4] was 84.1%, the residual activity [5] was 100% and the residual activity [6] was 100%. It also gave a residual activity [7] of 78.6%, a residual activity [8] of 100% and a residual activity [9] of 61.5%. The residual activity [10] was 97.4%, the residual activity [11] was 100% and the residual activity [12] was 86.4%. It also gave a residual activity [13] of 59.8%, an inhibition [14] of 15.7% and a residual activity [15] of 100%. For the same molecule, the residual activity [16] was 100%, the residual activity [17] was 100% and the residual activity [18] was 97%. It also gave a residual activity [19] of 100%, a residual activity [20] of 94.3% and a residual activity [21] of 86.7%. The inhibition [22] was 71%, the inhibition [23] was -6.54% and the residual activity [24] was 88.9%. It also gave a residual activity [25] of 100%, a residual activity [26] of 84.1% and a residual activity [27] of 83.8%. The residual activity [28] was 67.1%, the residual activity [29] was 92.8% and the inhibition [30] was 27.4%. The residual activity [31] was 100%, the residual activity [32] was 100% and the residual activity [33] was 77.8%. It also gave a residual activity [34] of 71.4%, a residual activity [35] of 100% and an inhibition [36] of 1.6%. It also gave a residual activity [37] of 68.1%, a residual activity [38] of 100% and a residual activity [39] of 100%. The residual activity [40] was 98.8%, the residual activity [41] was 96% and the residual activity [42] was 100%. The residual activity [43] was 100%, the residual activity [44] was 100% and the inhibition [45] was 6.26%.

With Cc1cc(Nc2nccc(C)n2)cc(-c2cnc([C@@]3(O)CC[C@H](C(=O)O)C(C)(C)C3)s2)c1 [MRL-SYKi] the residual activity [1] was 100%, the residual activity [2] was 100% and the residual activity [3] was 66.6%. It also gave a residual activity [4] of 100%, a residual activity [5] of 88.2% and a residual activity [6] of 100%. The residual activity [7] was 34.7%, the residual activity [8] was 96.1% and the residual activity [9] was 100%. For the same molecule, the residual activity [10] was 69.4%, the residual activity [11] was 83.3% and the residual activity [12] was 55.5%. The residual activity [13] was 100%, the inhibition [14] was 3.34% and the residual activity [15] was 81.3%. The residual activity [16] was 98.8%, the residual activity [17] was 73% and the residual activity [18] was 100%. For the same molecule, the residual activity [19] was 98%, the residual activity [20] was 89.6% and the residual activity [21] was 100%. The inhibition [22] was 39.3%, the inhibition [23] was 3.43% and the residual activity [24] was 100%. The residual activity [25] was 91.3%, the residual activity [26] was 66.6% and the residual activity [27] was 97.9%. It also gave a residual activity [28] of 67.7%, a residual activity [29] of 91.9% and an inhibition [30] of 33.5%. The residual activity [31] was 100%, the residual activity [32] was 68.6% and the residual activity [33] was 91.6%. It also gave a residual activity [34] of 100%, a residual activity [35] of 100% and an inhibition [36] of 5.53%. For the same molecule, the residual activity [37] was 56.1%, the residual activity [38] was 86% and the residual activity [39] was 100%. It also gave a residual activity [40] of 94.7%, a residual activity [41] of 100% and a residual activity [42] of 100%. For the same molecule, the residual activity [43] was 81.6%, the residual activity [44] was 100% and the inhibition [45] was -7.4%.
